Data as given in ChEMBL document CHEMBL1201862, “PubChem BioAssay data set” (2004).
Calls of active or inactive are those of the source. Unless noted, no cut-off for these calls is given here.

Columns and labels:
BHK-21 = assay: BHK-21 cell toxicity, dose response, cytotoxicity control, plate reader, cherry-pick samples (AID 687030); assay type: functional, cell-based; conditions: Mesocricetus auratus
Vero = assay: Vero cell toxicity, dose response, cytotoxicity control, plate reader, cherry-pick samples (AID 687020); assay type: functional, cell-based; conditions: Chlorocebus sabaeus
A549 = assay: A549 cell toxicity, dose response, cytotoxicity control, plate reader, cherry-pick samples (AID 687028); assay type: functional, cell-based; conditions: Homo sapiens
[1] = molecular target: Metabotropic glutamate receptor 3 (Rattus norvegicus, UniProt P31422); assay: mGlu3 negative allosteric modulator potency, dose response, HEK/GIRK cells, thallium flux, rat (AID 651839); assay type: functional
Metabotropic glutamate receptor 3, sequence (P31422 whole entry): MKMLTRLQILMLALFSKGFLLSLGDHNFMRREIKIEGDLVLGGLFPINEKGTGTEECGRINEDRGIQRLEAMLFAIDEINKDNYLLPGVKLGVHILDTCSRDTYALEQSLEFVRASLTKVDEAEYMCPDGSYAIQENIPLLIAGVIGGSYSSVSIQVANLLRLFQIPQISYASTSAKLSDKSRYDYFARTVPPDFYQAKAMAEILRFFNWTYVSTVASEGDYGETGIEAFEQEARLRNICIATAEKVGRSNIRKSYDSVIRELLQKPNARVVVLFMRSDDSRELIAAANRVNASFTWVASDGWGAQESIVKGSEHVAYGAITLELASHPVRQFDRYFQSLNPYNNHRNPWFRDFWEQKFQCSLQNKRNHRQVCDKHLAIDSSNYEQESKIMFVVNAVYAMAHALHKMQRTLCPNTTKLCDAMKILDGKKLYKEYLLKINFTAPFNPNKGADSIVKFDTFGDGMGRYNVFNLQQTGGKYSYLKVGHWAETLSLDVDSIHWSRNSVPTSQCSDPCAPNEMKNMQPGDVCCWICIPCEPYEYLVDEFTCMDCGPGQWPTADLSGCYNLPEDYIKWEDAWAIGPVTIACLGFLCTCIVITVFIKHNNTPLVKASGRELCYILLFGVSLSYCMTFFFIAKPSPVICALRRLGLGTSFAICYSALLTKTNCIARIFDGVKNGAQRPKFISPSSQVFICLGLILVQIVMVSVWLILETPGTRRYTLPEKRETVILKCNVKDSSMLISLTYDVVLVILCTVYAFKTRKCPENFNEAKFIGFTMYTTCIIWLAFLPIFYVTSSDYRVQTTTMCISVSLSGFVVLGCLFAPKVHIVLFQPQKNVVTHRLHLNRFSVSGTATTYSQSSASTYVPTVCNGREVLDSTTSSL

[2] = inhibitors of non-replicating M. tuberculosis, dose response, luciferase, dry powder (AID 651620); assay type: functional; conditions: Mycobacterium tuberculosis
[3] = growth inhibition of replicating M. tuberculosis, dose response, counter-screen, dry powder, IC90 (AID 651617); assay type: functional; conditions: Mycobacterium tuberculosis
[4] = inhibitors of non-replicating M. tuberculosis, dose response, luciferase, dry powder (AID 651619); assay type: functional; conditions: Mycobacterium tuberculosis
[5] = HeLa cell cytotoxicity, dose response, cytotoxicity control, 24 h, plate reader, powder samples, set 3 (AID 651864); assay type: functional, cell-based
[6] = A375 melanoma cell cytotoxicity, dose response, counter-screen for MITF inhibitor project, CellTiter-Glo luminescence, dry powder, set 2 (AID 624489); assay type: functional, cell-based; conditions: A-375;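 note: actives are compounds lowering A375 viability meaning general cytotoxicity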
[7] = A375 melanoma cell viability loss, dose response, counter-screen for MITF inhibitor project, CellTiter-Glo luminescence, dry powder, set 4 (AID 624364); assay type: functional, cell-based; conditions: A-375;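 note: A375 melanoma cells are MITF independent so this is a counter screen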
[8] = molecular target: Protein disulfide-isomerase (Homo sapiens, UniProt P07237); assay: PDI inhibitors, insulin turbidity readout, confirmation, biochemical, dry powder samples, set 2 (AID 652146)
Protein disulfide-isomerase, sequence (P07237 whole entry): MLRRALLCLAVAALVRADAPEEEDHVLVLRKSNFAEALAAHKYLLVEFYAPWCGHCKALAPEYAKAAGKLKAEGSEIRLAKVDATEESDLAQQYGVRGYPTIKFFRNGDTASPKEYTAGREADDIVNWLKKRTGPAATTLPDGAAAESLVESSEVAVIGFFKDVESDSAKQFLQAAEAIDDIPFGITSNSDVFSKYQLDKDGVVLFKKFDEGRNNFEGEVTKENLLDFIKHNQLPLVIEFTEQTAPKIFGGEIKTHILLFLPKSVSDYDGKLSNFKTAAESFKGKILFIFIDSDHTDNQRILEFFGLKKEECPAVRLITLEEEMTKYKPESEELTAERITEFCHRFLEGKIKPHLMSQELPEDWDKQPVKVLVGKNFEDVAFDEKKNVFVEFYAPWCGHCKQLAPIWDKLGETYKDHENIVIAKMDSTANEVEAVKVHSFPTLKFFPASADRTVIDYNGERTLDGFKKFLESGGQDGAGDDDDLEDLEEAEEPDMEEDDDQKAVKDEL

[9] = molecular target: Protein disulfide-isomerase A6 (Homo sapiens, UniProt Q15084); assay: Secondary Assay for Selectivity of PDI Inhibitors (against ERp5) Measured in Biochemical System Using Plate Reader - 2137-04_Inhibitor_Dose_DryPowder_Activity_Set3.
Protein disulfide-isomerase A6, sequence (Q15084 whole entry): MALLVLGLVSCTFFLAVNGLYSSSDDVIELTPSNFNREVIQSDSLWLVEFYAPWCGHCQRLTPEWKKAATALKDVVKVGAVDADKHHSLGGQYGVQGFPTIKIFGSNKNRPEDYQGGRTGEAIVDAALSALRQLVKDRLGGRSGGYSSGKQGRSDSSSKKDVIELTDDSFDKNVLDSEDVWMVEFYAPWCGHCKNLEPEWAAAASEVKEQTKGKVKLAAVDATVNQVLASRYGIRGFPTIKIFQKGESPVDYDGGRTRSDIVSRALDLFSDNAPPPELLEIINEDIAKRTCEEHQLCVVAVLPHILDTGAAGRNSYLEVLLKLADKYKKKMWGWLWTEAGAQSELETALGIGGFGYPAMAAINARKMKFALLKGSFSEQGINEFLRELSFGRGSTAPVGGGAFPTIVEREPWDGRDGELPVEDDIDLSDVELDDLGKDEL

[10] = HeLa cell cytotoxicity, dose response, cytotoxicity control, ATP luminescence, dry powder (AID 652117); assay type: functional, cell-based
[11] = HEK293T cell cytotoxicity, dose response, cytotoxicity control, luminescence plate reader, powder samples, set 4 (AID 651863); assay type: functional, cell-based; conditions: HEK293
Mu-type opioid receptor = Mu-type opioid receptor (Homo sapiens, UniProt P35372); assay: Late-stage results from the probe development effort to identify antagonists of OPRK1: luminescence-based cell-based dose response OPRM1 counterscreen.; assay type: functional
Mu-type opioid receptor, sequence (P35372 whole entry): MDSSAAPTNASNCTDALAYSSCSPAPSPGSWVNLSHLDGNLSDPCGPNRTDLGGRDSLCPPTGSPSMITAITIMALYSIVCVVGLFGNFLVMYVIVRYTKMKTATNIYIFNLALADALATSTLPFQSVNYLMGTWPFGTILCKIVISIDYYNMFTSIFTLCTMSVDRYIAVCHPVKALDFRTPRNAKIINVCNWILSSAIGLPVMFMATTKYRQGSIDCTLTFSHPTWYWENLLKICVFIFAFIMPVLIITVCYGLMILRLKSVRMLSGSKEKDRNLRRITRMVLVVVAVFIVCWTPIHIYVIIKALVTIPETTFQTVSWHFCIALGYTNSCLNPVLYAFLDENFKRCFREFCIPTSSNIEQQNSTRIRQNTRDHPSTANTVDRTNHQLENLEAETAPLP

[12] = molecular target: Delta-type opioid receptor (Homo sapiens, UniProt P41143); assay: Late-stage results from the probe development effort to identify antagonists of OPRK1: fluorescence-based cell-based dose response OPRD1 counterscreen.; assay type: functional
Delta-type opioid receptor, sequence (P41143 whole entry): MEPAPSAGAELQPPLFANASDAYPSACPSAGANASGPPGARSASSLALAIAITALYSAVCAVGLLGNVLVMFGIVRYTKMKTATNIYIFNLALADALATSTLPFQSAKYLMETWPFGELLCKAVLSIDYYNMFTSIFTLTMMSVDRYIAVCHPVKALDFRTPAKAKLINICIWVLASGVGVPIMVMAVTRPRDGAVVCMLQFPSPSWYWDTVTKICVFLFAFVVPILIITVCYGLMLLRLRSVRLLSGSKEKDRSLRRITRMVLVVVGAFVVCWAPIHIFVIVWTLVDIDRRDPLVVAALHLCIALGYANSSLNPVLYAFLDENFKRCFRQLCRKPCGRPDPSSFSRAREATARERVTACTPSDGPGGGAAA

[13] = Dose-response inhibition of insulin secretion in a rat insulinoma line at 5 mM glucose (AID 1117331); assay type: functional, cell-based; conditions: INS-1E

Q: Which AC50 (BHK-21) does the source give for CCCCN(C(C)=O)c1ccc2c(c1)C1CC2CCN1Cc1ccccc1 (configuration not stated) here?
A: 33.7 µM (active)

Q: What about the AC50 (Vero) of the same compound?
A: 30.5 µM (active)

Q: And the AC50 (A549)?
A: 30.3 µM (active)

Q: Which IC50 [1] does the source give for COc1ccc(C#Cc2ccc(C(=O)N3CC[C@@H](O)C3)cc2)cc1 here?
A: 6.34 µM (active)

Q: Which IC90 [2] does the source give for c1ccc(-c2nnc(SCc3ccccn3)o2)cc1 here?
A: 4 µM (active)

Q: What about the IC90 [3] of the same compound?
A: 16 µM (active)

Q: And the IC90 [4]?
A: 4 µM (active)

Q: Which AC50 [5] does the source give for O=C(Cc1ccc(-c2ccccc2)cc1)NC1CCCCC1 here?
A: 109 µM (active)

Q: With O=C1C(NS(=O)(=O)c2ccc(Br)cc2)=C(c2ccc(OC(F)(F)F)cc2)C(=O)c2ccccc21 as the compound, how does the AC50 [6] read?
A: > 70 µM (inactive)

Q: And the AC50 [7]?
A: > 70 µM (inactive)

Q: For CC(C)(C)OC(=O)C1(CCOc2ccccc2)CCN(Cc2ccc(O)c(Cl)c2)CC1, which AC50 [8] is on record?
A: 0.6 µM (active)

Q: And the AC50 [9]?
A: 30 µM (inactive)

Q: And the AC50 [10]?
A: 34 µM (active)

Q: With O=C(O)C1CCCCC1C(=O)N1CCc2ccccc2C1CN1C(=O)[C@H]2CCCC[C@H]2C1=O (some centres not stated) as the compound, how does the AC50 [11] read?
A: > 52 µM (inactive)

Q: Which results are given for COC(=O)c1cc(Cl)cnc1N1CCC(NC2CCCCC2)CC1?
A: IC50 (Mu-type opioid receptor): 2 µM (active); IC50 [12]: 39 µM (inactive)

Q: For Cc1ccc(O)c([C@H](CCN(C(C)C)C(C)C)c2ccccc2)c1 [TOLTERODINE], which IC50 [13] is on record?
A: > 33.3 µM (inactive)
